For experiment [1], the target named is Cytochrome P450 2C9 (Homo sapiens, UniProt P11712).
Experiment [2] has as its target Cytochrome P450 2C19 (Homo sapiens, UniProt P33261). Nature of the experiment: Cytochrome panel assay with activity outcomes. Panel member name: p450-cyp2c19 Compounds with AC50 equal or less than 10 uM are considered active. The experiment is classed as functional. The note with it: read-out: AC50.
The target in experiment [3] is T1, Cytochrome P450 1A2 (Homo sapiens, UniProt P05177).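 Note: PubChem cytochrome P450 panel assay, CYP1A2 panel member.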
T1 sequence (P05177 whole entry): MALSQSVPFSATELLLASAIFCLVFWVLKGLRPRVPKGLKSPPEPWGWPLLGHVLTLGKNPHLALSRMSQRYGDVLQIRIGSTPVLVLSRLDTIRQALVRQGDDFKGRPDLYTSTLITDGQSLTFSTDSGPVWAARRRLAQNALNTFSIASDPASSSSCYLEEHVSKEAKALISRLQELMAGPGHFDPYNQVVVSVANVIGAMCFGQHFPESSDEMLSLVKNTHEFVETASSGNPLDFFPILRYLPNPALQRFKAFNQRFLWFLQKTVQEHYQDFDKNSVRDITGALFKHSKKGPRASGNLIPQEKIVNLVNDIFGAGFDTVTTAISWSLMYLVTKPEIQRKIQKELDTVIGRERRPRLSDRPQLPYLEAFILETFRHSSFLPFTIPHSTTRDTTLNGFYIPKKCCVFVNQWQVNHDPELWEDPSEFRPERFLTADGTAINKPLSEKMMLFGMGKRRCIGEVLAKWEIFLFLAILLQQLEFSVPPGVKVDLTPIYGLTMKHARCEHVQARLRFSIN

The nature of experiment [4]: Luminescence Cell-Based Dose Confirmation HTS to Identify Inhibitors of Platelet Dense Granule Release. [Related pubchem assays: 1663 (Primary HTS), 1678 (Summary of Project)]. The experiment is classed as functional.
For experiment [5], the target named is Luciferin 4-monooxygenase (Photinus pyralis, UniProt P08659). Nature of the experiment: firefly luciferase enzyme inhibitors, dose response, biochemical, luminescence (AID 1891).
Experiment [6] deals with T2, Heat shock factor protein 1 (Mus musculus, UniProt P38532).
T2 sequence (P38532 whole entry): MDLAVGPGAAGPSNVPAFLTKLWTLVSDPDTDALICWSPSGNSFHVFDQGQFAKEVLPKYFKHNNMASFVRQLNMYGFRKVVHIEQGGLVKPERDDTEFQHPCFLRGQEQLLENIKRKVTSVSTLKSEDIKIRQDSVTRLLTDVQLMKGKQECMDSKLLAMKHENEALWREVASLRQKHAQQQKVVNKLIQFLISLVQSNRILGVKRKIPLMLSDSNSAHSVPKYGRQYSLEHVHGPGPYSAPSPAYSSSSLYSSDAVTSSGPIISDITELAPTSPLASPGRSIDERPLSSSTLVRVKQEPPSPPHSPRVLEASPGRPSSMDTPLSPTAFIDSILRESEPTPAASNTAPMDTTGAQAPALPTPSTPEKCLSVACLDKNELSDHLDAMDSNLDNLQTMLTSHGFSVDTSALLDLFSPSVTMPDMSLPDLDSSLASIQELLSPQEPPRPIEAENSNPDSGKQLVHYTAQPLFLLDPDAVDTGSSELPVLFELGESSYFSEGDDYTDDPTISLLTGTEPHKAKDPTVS
Kind of experiment: inhibition of MG132-induced HSE-luciferase signal, confirmation, cell-based, NIH3T3, luminescence, dose retest (AID 2382).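 Note: NIH3T3 fibroblasts with HSF1-driven luciferase reporter stressed by proteasome inhibitor MG132; luminescence from HSF1-driven luciferase expression after 8 hours of MG132 stress.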 The experiment is classed as functional.

The nature of experiment [7]: P. falciparum Dd2 growth inhibitors, dose response, SYBR Green, cherry-picked samples (AID 1159567). Type of experiment: functional, cell-based.
For experiment [8], the target named is T3, Corticotropin-releasing factor receptor 2/Corticotropin-releasing factor-binding protein (Homo sapiens, UniProt P24387+Q13324).
T3 sequence (Q13324 whole entry): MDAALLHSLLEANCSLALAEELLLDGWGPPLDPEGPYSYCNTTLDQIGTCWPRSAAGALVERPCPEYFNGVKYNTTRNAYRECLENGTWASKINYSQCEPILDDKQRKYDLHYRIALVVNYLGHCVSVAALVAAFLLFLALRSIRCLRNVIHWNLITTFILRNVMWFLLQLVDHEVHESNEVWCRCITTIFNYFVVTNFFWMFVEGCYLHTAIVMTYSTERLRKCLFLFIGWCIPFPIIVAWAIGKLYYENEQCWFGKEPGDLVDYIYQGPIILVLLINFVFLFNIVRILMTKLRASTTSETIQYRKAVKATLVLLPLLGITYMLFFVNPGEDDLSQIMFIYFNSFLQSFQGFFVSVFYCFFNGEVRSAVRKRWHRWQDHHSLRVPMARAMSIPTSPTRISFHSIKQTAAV
T3 sequence (P24387 whole entry): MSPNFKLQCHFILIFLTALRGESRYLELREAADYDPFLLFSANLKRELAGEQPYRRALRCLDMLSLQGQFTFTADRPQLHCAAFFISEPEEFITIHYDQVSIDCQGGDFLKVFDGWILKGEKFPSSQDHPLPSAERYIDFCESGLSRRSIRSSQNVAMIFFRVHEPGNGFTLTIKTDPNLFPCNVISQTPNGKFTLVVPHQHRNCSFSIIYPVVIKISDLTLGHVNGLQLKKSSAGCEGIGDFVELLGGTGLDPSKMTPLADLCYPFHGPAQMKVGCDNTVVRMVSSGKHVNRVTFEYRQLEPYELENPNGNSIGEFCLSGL
Kind of experiment: activators of CRF receptor 2 with binding protein – uHTS hits, confirmation (AID 602473). The experiment is classed as functional. The note with it: read-out: EC50_Mean.

For experiment [9], the target named is T3, Corticotropin-releasing factor receptor 2/Corticotropin-releasing factor-binding protein. Nature of the experiment: Dose Response confirmation of uHTS hits for small molecule antagonists of the CRF-binding protein and CRF-R2 receptor complex. Type of experiment: functional. The note with it: read-out: IC50_Mean.
Experiment [10] deals with Cytochrome P450 3A4 (Homo sapiens, UniProt P08684).

Active and inactive are the calls of the source.

Chain of Cytochrome P450 2C9 (P11712 whole entry): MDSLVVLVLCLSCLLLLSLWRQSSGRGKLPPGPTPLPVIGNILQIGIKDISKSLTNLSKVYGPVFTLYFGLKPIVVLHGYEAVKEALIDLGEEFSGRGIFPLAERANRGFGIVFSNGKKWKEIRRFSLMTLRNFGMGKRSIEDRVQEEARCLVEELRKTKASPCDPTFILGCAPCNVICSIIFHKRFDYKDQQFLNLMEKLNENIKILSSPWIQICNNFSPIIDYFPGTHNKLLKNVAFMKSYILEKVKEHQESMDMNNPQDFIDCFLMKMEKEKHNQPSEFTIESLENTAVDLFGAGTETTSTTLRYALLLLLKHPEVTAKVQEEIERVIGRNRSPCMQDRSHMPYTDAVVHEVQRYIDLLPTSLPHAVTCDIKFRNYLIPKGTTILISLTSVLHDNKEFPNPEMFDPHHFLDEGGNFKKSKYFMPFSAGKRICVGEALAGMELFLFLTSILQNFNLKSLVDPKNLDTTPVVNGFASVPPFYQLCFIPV
Chain of Cytochrome P450 3A4 (P08684 whole entry): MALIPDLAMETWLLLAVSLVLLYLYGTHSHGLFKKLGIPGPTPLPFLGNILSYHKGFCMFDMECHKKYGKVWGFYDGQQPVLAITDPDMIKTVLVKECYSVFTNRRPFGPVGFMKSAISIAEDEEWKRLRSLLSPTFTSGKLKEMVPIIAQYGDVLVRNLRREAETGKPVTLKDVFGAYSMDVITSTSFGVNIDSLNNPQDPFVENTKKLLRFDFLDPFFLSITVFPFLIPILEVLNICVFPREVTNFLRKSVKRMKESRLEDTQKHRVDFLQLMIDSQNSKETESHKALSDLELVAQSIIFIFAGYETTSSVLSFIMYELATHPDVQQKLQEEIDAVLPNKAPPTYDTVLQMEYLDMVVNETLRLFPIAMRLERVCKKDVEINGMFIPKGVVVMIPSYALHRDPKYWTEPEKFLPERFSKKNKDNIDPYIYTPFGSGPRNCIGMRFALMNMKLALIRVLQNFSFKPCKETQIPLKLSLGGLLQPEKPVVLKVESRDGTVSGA
Chain of Cytochrome P450 2C19 (P33261 whole entry): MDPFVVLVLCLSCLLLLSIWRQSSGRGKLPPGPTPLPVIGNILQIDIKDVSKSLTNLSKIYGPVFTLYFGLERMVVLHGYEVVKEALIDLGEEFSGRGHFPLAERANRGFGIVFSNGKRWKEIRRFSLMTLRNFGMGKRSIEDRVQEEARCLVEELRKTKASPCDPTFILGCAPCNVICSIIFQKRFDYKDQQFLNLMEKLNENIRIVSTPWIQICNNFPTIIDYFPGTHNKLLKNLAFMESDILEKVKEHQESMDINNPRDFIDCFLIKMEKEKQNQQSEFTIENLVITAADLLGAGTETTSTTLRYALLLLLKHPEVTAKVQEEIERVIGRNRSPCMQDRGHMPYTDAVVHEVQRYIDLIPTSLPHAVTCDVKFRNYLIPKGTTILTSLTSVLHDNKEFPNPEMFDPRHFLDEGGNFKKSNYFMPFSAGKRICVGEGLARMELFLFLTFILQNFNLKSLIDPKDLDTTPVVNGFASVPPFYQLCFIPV
Chain of Luciferin 4-monooxygenase (P08659 whole entry): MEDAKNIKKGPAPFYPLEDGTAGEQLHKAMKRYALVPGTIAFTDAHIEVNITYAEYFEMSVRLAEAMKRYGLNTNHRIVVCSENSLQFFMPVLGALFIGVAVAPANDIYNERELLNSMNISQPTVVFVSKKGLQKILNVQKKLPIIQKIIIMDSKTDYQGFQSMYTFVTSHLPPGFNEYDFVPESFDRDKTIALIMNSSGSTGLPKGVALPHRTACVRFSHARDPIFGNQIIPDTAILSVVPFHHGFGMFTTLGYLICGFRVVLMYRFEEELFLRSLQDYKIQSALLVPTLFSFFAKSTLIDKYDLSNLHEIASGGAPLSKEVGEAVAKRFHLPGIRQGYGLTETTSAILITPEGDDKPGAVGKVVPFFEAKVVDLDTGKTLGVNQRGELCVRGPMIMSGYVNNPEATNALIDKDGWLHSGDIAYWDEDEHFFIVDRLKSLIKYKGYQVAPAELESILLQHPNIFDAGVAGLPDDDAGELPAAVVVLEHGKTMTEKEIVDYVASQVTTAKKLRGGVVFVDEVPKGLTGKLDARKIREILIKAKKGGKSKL

As a reminder, the AC50 is the midpoint of the concentration-response curve, whichever way the signal moves. With `Cc1nn(-c2ccccc2)c(-c2ccccc2)c1C(=O)O`, the AC50 in experiment [1] was 1.12 µM (inconclusive); in [2] it was 5.01 µM (inconclusive); in experiment [3] it was 25.1 µM (inconclusive).
Regarding `N#Cc1nc(Cc2ccccc2)oc1N1CCCC1`, the figures for the EC50 in [4] and in experiment [5] were > 112 µM (not active) and 18.5 µM (active), respectively.
As for `Cc1cccc(Nc2ccncc2S(=O)(=O)NC(=O)NC(C)C)c1` [TORSEMIDE], the AC50 in [1] is 12.6 µM (inconclusive). Moreover, the EC50 in [6] was > 195 µM (not active).
Consider `COc1ccc(CN2CC3(C2)CN(Cc2ccc4c(c2)OCO4)[C@H](CO)c2[nH]c4cc(OC)ccc4c23)cc1`, for which the AC50 in experiment [7] is 3.49 µM (active).
Turning to `CC(=O)Nc1ccc(NC(=O)C(C)OC(=O)C2CCCCC2)cc1` (stereo unspecified), in experiment [8], the EC50 was > 53 µM (inactive). For the same compound, the IC50 in experiment [9] is > 47.1 µM (inactive).
The like results for `Cc1ccccc1Nc1scc(-c2ccc(Br)cc2)[n+]1-c1ccccc1C` were, in that order, > 53 µM (inactive) and > 47.1 µM (inactive).
Consider `CCCCn1c(=O)n(CC(=O)Nc2c(CC)cccc2CC)c(=O)c2c1nc(CO)n2CCC`, for which the EC50 in experiment [6] is given as > 195 µM (not active).
On the same count and under the same terms, in the case of `CCn1c(C(=O)O)c(CC(=O)Nc2ccccc2OC)c2ccccc21` it was > 195 µM (not active).
As to `CCN(CCO)Cc1csc2cccc(Br)c12`, the EC50 in experiment [8] is > 53 µM (inactive). Also, the AC50 in experiment [2] was 22.4 µM (inconclusive). Further, the IC50 in experiment [9] was > 47.1 µM (inactive).
In the case of `COc1ccc(N2C(=O)C(C)(C)C2c2c(O)ccc3ccccc23)cc1` (stereo unspecified), in experiment [6], the EC50 is given as > 195 µM (not active).
For `COc1ccc(Br)cc1CNC(=O)c1ccc2c(c1)N(C)CCS2`, the EC50 in [4] and in [5] was > 112 µM (not active) throughout.
As to `COc1ccc2[nH]cc(CCN=C(S)NC3CCCC3)c2c1`, the EC50 in experiment [8] was > 53 µM (inactive). For the same compound, the IC50 in experiment [9] was > 47.1 µM (inactive).
On to `COc1ccc(C2=NN(C)/C(=N\Cc3ccccc3)SC2)cc1`, for which the EC50 in [8] was > 53 µM (inactive). In [9], the IC50 was > 47.1 µM (inactive).
For the compound `C[C@H]1CN([C@@H](C)CO)C(=O)c2cc(NC(=O)Cc3cn(C)c4ccccc34)ccc2O[C@H]1CN(C)S(=O)(=O)c1ccccc1`, the AC50 in [7] is 4.86 µM (active).
`CCc1nn(CC(=O)N2CCC(C(N)=O)CC2)c(=O)c2cc3occc3n12`: the EC50 in experiment [6] was > 195 µM (not active).
`Cc1ccc(/C=C/c2nnc(-c3ccc(C)cc3)o2)cc1`: the AC50 in [1] was 5.62 µM (inconclusive); in experiment [3], 4.47 µM (inconclusive); in experiment [10], 10 µM (inconclusive).
For the compound `COc1ccccc1S(=O)(=O)N[C@H]1CC[C@@H](CCn2cc(C3CCCC3)nn2)O[C@@H]1CO`, the AC50 in experiment [7] is 11.5 µM (active).
With `CN(C)c1c([N+](=O)[O-])ncn1C`, the EC50 in experiment [8] was > 53 µM (inactive). In experiment [9], the IC50 was > 47.1 µM (inactive).
As to `Fc1ccccc1OCCCCCCN1CCCC1`, the AC50 in experiment [1] was 39.8 µM (inconclusive); in experiment [2], 39.8 µM (inconclusive); in experiment [3], 17.8 µM (inconclusive); in experiment [10], 17.8 µM (inconclusive).
Consider `O=C(c1ccc(S(=O)(=O)Nc2ccccc2)cc1)N1CCCC1`, for which the EC50 in experiment [4] and in experiment [5] was > 112 µM (not active) throughout.
As for `O=C1C2CCCN2c2ccc(S(=O)(=O)N3CCOCC3)cc2N1Cc1cccc(C(F)(F)F)c1` (stereo unspecified), the AC50 in experiment [2] was 3.55 µM (inconclusive). In addition, the EC50 in experiment [6] is > 195 µM (not active).
Consider `O=C(Nc1cccc(F)c1)C1CCN(C(=O)Cc2ccccc2)CC1`, for which the EC50 in [4] and in [5] was > 112 µM (not active) in each case.
As to `CC(Cc1ccccc1)Nc1ncnc2c1ncn2C1OC(CO)C(O)C1O` (stereo unspecified), the EC50 is < 0.701 µM (active) in [4] and > 112 µM (not active) in experiment [5].
For the compound `Cn1nc(N)c2ncc(C(Cl)(Cl)Cl)nc21`, the EC50 in [8] is > 53 µM (inactive). Also, the IC50 in experiment [9] is > 47.1 µM (inactive).
Turning to `Nc1cc(OC(=O)c2ccco2)nn1S(=O)(=O)c1ccc(F)cc1`, the EC50 in experiment [8] is > 53 µM (inactive). Moreover, in [9], the IC50 is 34.8 µM (active).
Consider `CCOC(=O)C1CCCN(C(=O)CCCn2nc(C)n3c(cc4sccc43)c2=O)C1` (stereo unspecified), for which the EC50 in experiment [4] and in experiment [5] was > 112 µM (not active) each time.
As to `Cc1cccc(C(=N)NOC(=O)c2ccc(Cl)cc2Cl)c1`, the results for the EC50 in experiment [4] and in experiment [5] were 3.2 µM (active) and 0.761 µM (active), respectively.
As to `CCOc1ccc(CN2CCN(CCCn3cccn3)CC2CCO)cc1` (stereo unspecified), the results for the EC50 in experiment [4] and in [5] were 83.2 µM (active) and > 112 µM (not active), respectively.
For `CCOC(=O)CSc1nnc(-c2ccccc2)c(-c2ccccc2)n1`, the EC50 in experiment [6] is listed as > 195 µM (not active).
In the case of `CC(C)(C)[S+]([O-])N1Cc2cc(C(=O)N[C@@H]3CCN(Cc4ccccc4)C3)nc(-c3cccc(C#CCC4CCCC4)c3)c2[C@H]1CCO` (stereo partly specified), in experiment [7], the AC50 was 3.75 µM (active).
As for `Cn1c(=O)c(CCc2ccccc2)nc2cnc(Nc3ccccc3)nc21`, the AC50 is 10 µM (inconclusive) in experiment [1], 1.26 µM (inconclusive) in [3] and 12.6 µM (inconclusive) in experiment [10].
As for `COc1ccc(NC(=O)N2CC[C@@]3(CCCN(C(=O)c4ccc(OC)cc4)C3)C2)cc1`, the results for the AC50 in experiment [1] and in experiment [3] were 12.6 µM (inconclusive) and 25.1 µM (inconclusive), respectively.
Turning to `Cc1cccc(CN2CCNC2=O)c1`, in [6], the EC50 is given as > 195 µM (not active).
Same read-out and setting: in the case of `Cc1ccc(S(=O)(=O)N2CCN(C(=O)c3c(-c4ccccc4)noc3C)CC2)c(C)c1` it was > 195 µM (not active).
With `CCCCNC(=O)CN=C(S)N(Cc1ccccc1)Cc1cccs1`, the EC50 in experiment [6] is on record as > 195 µM (not active).
For the compound `CC1=C(C(=O)OC(C)(C)C)C(c2cccc3ccccc23)NC(=O)N1` (stereo unspecified), the EC50 in [8] was > 53 µM (inactive). In [9], the IC50 is > 47.1 µM (inactive).
As to `Nc1nc(NCc2ccco2)nc(NC2CCCCC2)c1[N+](=O)[O-]`, the EC50 in experiment [6] is on record as > 195 µM (not active).
For `CCCN(C(=O)CSc1n[nH]c(-c2ccc(OC)cc2)n1)c1c(N)n(Cc2ccccc2)c(=O)[nH]c1=O`, the EC50 in experiment [8] is > 53 µM (inactive). Moreover, the IC50 in [9] is > 47.1 µM (inactive).
With `Cc1ccc(S(=O)(=O)NC(=NCc2ccccc2)c2ccc(F)cc2)cc1`, the EC50 in [6] is recorded as > 195 µM (not active).
For `CCOc1cc(/C=N/NC(=O)c2cccc(S(=O)(=O)N3CCOCC3)c2)ccc1OCC(=O)N(C)C`, the EC50 in [6] was > 195 µM (not active).

The values above are taken from ChEMBL document CHEMBL1201862, “PubChem BioAssay data set” (2004).
